From ChEMBL document CHEMBL6153042, “Glycoconjugates of adefovir and tenofovir as asialoglycoprotein-mediated Anti-HBV prodrugs with enhanced liver targeting” (Eur J Med Chem, 2025)

Experiments:
[1] = Toxicity in Kunming mouse assessed as effect on liver weight at 100 to 200 mg/kg, iv once daily for 5 days; type: organism-based; settings: in vivo, 120 h, dose 100-200 mg/kg, time 5 day
[2] = Toxicity in Kunming mouse assessed as effect on liver size at 100 to 200 mg/kg, iv once daily for 5 days; type: organism-based; settings: in vivo, 120 h, dose 100-200 mg/kg, time 5 day
[3] = Stability of compound in PBS buffer assessed as half-life by high-performance liquid chromatography; type: physicochemical
[4] = Selectivity index, the ratio of CC50 for human HepG2.2.15 cells to EC50 for antiviral activity against HBV in human HepG2.2.15 cells assessed as inhibition of HBV DNA replication; type: toxicity, cell-based; settings: read-out: Ratio CC50/EC50
[5] = Toxicity in Kunming mouse assessed as effect on heart colour at 100 to 200 mg/kg, iv once daily for 5 days; type: organism-based; settings: in vivo, 120 h, dose 100-200 mg/kg, time 5 day
[6] = Toxicity in Kunming mouse assessed as histopathological changes in liver at 200 mg/kg, iv once daily for 5 days by H and E staining based analysis; type: organism-based; settings: in vivo, 120 h, time 5 day
[7] = Drug uptake in Sprague-Dawley rat liver at 10 mg/kg, iv measured after 1 to 6 hrs by LC-MS/MS analysis; type: ADME, organism-based; settings: in vivo, time 1-6 hrs
[8] = Toxicity in Kunming mouse assessed as effect on kidney weight at 100 to 200 mg/kg, iv once daily for 5 days; type: organism-based; settings: in vivo, 120 h, dose 100-200 mg/kg, time 5 day
[9] = Toxicity in Kunming mouse assessed as effect on kidney size at 100 to 200 mg/kg, iv once daily for 5 days; type: organism-based; settings: in vivo, 120 h, dose 100-200 mg/kg, time 5 day
[10] = Toxicity in Kunming mouse assessed as histopathological changes in kidney at 200 mg/kg, iv once daily for 5 days by H and E staining based analysis; type: organism-based; settings: in vivo, 120 h, time 5 day
[11] = Drug metabolism in plasma of Sprague-Dawley rat assessed as (1-(36-(((2R,3R,4S,5R,6R)-3-acetamido-4,5-dihydroxy-6-(hydroxymethyl)tetrahydro-2H-pyran-2-yl)oxy)-21,21-bis((3-((3-(5-(((2R,3R,4S,5R,6R)-3-acetamido-4,5-dihydroxy-6-(hydroxymethyl)tetrahydro-2H-pyran-2-yl)oxy)pentanamido)propyl)amino)-3-oxopropoxy)methyl)-16,19,26,32-tetraoxo-3,6,9,12,23-pentaoxa-15,20,27,31-tetraazahexatriacontyl)-1H-1,2,3-triazol-4-yl)methyl hydrogen ((((R)-1-(6-amino-9H-purin-9-yl)propan-2-yl)oxy)methyl)phosphonate formation measured at 2.1 mins by HPLC analysis; type: ADME, cell-free; settings: 0.035 h
[12] = Toxicity in Kunming mouse assessed as maximum tolerated dose administered intravenously as once daily dose for 5 days; settings: in vivo, route iv, time 5 day
[13] = Toxicity in Kunming mouse assessed as effect on heart size at 100 to 200 mg/kg, iv once daily for 5 days; type: organism-based; settings: in vivo, 120 h, dose 100-200 mg/kg, time 5 day
[14] = Cytotoxicity against human HepG2.2.15 cells assessed as inhibition of cell proliferation by CCK8 assay; type: toxicity, cell-based, HepG2 2.2.15
LX-2 [15] = test: Cytotoxicity against human LX2 cells assessed as cell growth inhibition at 10 uM incubated for 48 hrs by CCK8 assay relative to control; type: toxicity, cell-based; settings: lx-2, 48 h, 10 µM
LX-2 [16] = test: Cytotoxicity against human LX2 cells at 5 uM incubated for 48 hrs by CCK8 assay; type: toxicity, cell-based; settings: lx-2, 48 h
[17] = Toxicity in Kunming mouse assessed as effect on body weight at 100 to 200 mg/kg, iv administered once daily for 5 days; type: organism-based; settings: in vivo, 120 h, dose 100-200 mg/kg, time 5 day
[18] = Toxicity in Kunming mouse assessed as histopathological changes in heart at 200 mg/kg, iv once daily for 5 days by H and E staining based analysis; type: organism-based; settings: in vivo, 120 h, time 5 day
[19] = Toxicity in Kunming mouse assessed as effect on heart weight at 100 to 200 mg/kg, iv once daily for 5 days; type: organism-based; settings: in vivo, 120 h, dose 100-200 mg/kg, time 5 day
[20] = Toxicity in Kunming mouse assessed as effect on kidney colour at 100 to 200 mg/kg, iv once daily for 5 days; type: organism-based; settings: in vivo, 120 h, dose 100-200 mg/kg, time 5 day
[21] = Toxicity in Kunming mouse assessed as effect on liver colour at 100 to 200 mg/kg, iv once daily for 5 days; type: organism-based; settings: in vivo, 120 h, dose 100-200 mg/kg, time 5 day
Hepatitis B virus [22] = test: Antiviral activity against Hepatitis B virus infected in human HepG2.2.15 cells assessed as inhibition of HBV DNA replication incubated for 10 day by qPCR analysis; type: functional, organism-based; settings: HepG2.2.15, 240 h
Hepatitis B virus [23] = test: Antiviral activity against Hepatitis B virus infected in human HepG2.2.15 cells assessed as inhibition of HBV DNA replication incubated for 9 day; settings: HepG2.2.15, 216 h

With `CC(=O)N[C@H]1[C@H](OCCCCC(=O)NCCCNC(=O)CCOCC(COCCC(=O)NCCCNC(=O)CCCCO[C@@H]2O[C@H](CO)[C@H](O)[C@@H](O)[C@H]2NC(C)=O)(COCCC(=O)NCCCNC(=O)CCCCO[C@@H]2O[C@H](CO)[C@H](O)[C@@H](O)[C@H]2NC(C)=O)NC(=O)CCC(=O)NCCOCCOCCOCCOCCn2cc(COP(=O)(CO[C@H](C)Cn3cnc4c(N)ncnc43)OCOC(=O)OC(C)C)nn2)O[C@H](CO)[C@H](O)[C@H]1O` (stereo not given in full) the Activity [1] was “Non-toxic”, the Activity [2] was “Non-toxic” and the half-life [3] was greater than 24 h. The selectivity ratio [4] was greater than 1050, the Activity [5] was “Non-toxic” and the Activity [6] was “Non-toxic”. For the same compound, the Drug uptake [7] was “Active”, the Activity [8] was “Non-toxic” and the Activity [9] was “Non-toxic”. For the same compound, the Activity [10] was “Non-toxic”, the Drug metabolism [11] was “metabolite_detected” and the MTD at 120 h [12] was roughly 200 mg/kg. For the same compound, the Activity [13] was “Non-toxic”, the CC50 [14] was greater than 100000 nM and the Activity (LX-2 [15]) was “Toxic”. For the same compound, the Activity (LX-2 [16]) was “Toxic”, the Activity [17] was “Non-toxic” and the Activity [18] was “Non-toxic”. For the same compound, the Activity [19] was “Non-toxic”, the Activity [20] was “Non-toxic” and the Activity [21] was “Non-toxic”. It also gave an EC50 (Hepatitis B virus [22]) of 94.8 nM.

With `CC(C)OC(=O)[C@H](C)N[P@](=O)(CO[C@H](C)Cn1cnc2c(N)ncnc21)Oc1ccccc1` [TENOFOVIR ALAFENAMIDE] the Activity (LX-2 [15]) was “Toxic”, the EC50 (Hepatitis B virus [23]) was 12.2 nM and the Activity (LX-2 [16]) was “Toxic”.
